In PubChem BioAssay (NCI):
“And” between values parts separate entries of the source, which are not always exact repeats. Identical values can stand only once.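 Method: 48-hour compound exposure of cells in 96-well plates, five concentrations, linear interpolation of endpoints. GI50 = concentration required for 50% inhibition of growth. TGI is the concentration that stops growth completely.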

System: MDA-MB-468 breast
Assay: DTP human tumour cell line panel, 48 h

Structure (SMILES)	GI50	TGI
Clc1ccc(Nc2ccnc(NCCNc3ccnc4cc(Cl)ccc34)n2)cc1	1060 nM	2340 nM
c1ccc(Oc2c3ccccc3nc3ccccc23)cc1	1350 nM	4620 nM
COc1ccc(C(=O)c2cc(OC)c(OC)c(OC)c2)cc1/C=C/C(=O)c1ccc(O)cc1	2070 nM	8090 nM
CC(C)(C)[Si](C)(C)OC1[C@@H](O[Si](C)(C)C(C)(C)C)[C@@H](CNC(=O)NC(=O)NC(=O)CI)O[C@H]1n1cnc2c(NC(=O)Nc3ccccc3)ncnc21 (stereo not given in full)	334 nM	2060 nM
CS(=O)(=O)c1ccc(Oc2nccc(-c3c(-c4ccc(F)cc4)ncn3C3CCNCC3)n2)cc1	19100 nM	> 25000 nM
O=P(Oc1ccccc1)(Oc1ccccc1)C(O)c1ccccc1 (stereo not given)	35000 nM	> 100000 nM
C[C@@H](Oc1cc(-c2cnn(C3CCNCC3)c2)cnc1N)c1c(Cl)ccc(F)c1Cl	1060 nM	3720 nM
COc1ccc(/C=C\c2cc(OC)c(OC)c(OC)c2)cc1NC(=O)[C@@H](N)CO	< 17.8 nM	1270 nM
COc1cccc(-c2nc(-c3ccc(NS(=O)(=O)c4ccccc4)cc3)[nH]c2-c2ccnc(Br)c2)c1	1980 nM	5230 nM
Cn1cc(-c2nc(-c3c[nH]c4ncccc34)cs2)c2cc(Cl)ccc21	316 nM	2340 nM
COc1cc(-c2cc(C(=O)Nc3nc4ccccc4s3)nc3cc(-c4ccccc4)nn23)cc(OC)c1OC	13900 nM	38000 nM
O=c1oc2ccccc2c(Cl)c1Cl	1850 nM	4320 nM
COc1ccc(-n2c(-c3ccc(NC(=O)CCCl)cc3)nnc2-c2cc(OC)c(OC)c(OC)c2)cc1	2080 nM	5680 nM
O=C(CSc1nc2ccc([N+](=O)[O-])cc2[nH]1)Nc1cccc(C(F)(F)F)c1	964 nM	4710 nM
COC(=O)/C=C1\SC(=Nc2ccc(C(F)(F)F)cc2)N(CCc2c[nH]c3ccccc23)C1=O	2080 nM	4050 nM
OCc1ccc(N(Cc2ccc(F)cc2)C2CCC2)cc1Cl	17.6 nM	46.4 nM
C=C1C(=O)O[C@H]2[C@H]1CC/C(COC(=O)/C=C/c1cccnc1)=C\CC[C@@]1(C)O[C@@H]21	831 nM	4300 nM
O=C(Nc1cccc(NS(=O)(=O)c2ccc(F)cc2)c1)c1ccc(-c2ccccc2)cc1	2180 nM	9560 nM
COc1c(O)cc2oc3cc(O)c(CC=C(C)C)c(O)c3c(=O)c2c1C/C=C(\C)CCC=C(C)C	7160 nM	12500 nM
CCNCCNc1cc(-c2ccc(Cl)cc2)c(C#N)c2nc3ccccc3n12	642 nM	2090 nM

Structure (SMILES)	GI50	TGI
O=S(=O)(Nc1cccc2ccccc12)c1ccc(-c2cnc(C3CC3)o2)cc1	43.2 nM	12800 nM
O=C(CCl)Nc1ccccc1SCc1cc(Cl)cc2c1OCOC2	1930 nM	4500 nM
COc1ccc(/C=C(\C#N)n2nnc3cc(Cl)ccc32)cc1	258 nM	941 nM
COc1cc(-c2nnc(SCc3ccc(O)c4ncccc34)n2-c2ccccc2)cc(OC)c1OC	251 nM	2530 nM
COc1ccc(-c2nc3sccn3c2/C=C/C(=O)c2cc(OC)c(OC)c(OC)c2)cc1OC	2150 nM	5020 nM
CCOC(=O)Oc1c(OC)cc(C(=O)c2ccc(OC)c(OC(=O)CCl)c2OC)cc1OC	2490 nM	> 100000 nM
O=C1NC(=O)[C@@H](c2cn3c4c(cccc24)CCC3)[C@@H]1c1c[nH]c2ccccc12	306 nM and 260 nM	> 10000 nM and 3810 nM
O=C(Nc1ncc([N+](=O)[O-])s1)c1cccc([N+](=O)[O-])c1	3420 nM	38700 nM
CCN(CC)c1ccc2[nH]c3c(C(N)=O)cc(=O)c(=O)c=3oc2c1	1850 nM	4750 nM
COc1ccc(/C=C/C(=O)/C=C(/C=C/c2ccc(OC)c(OC)c2)OB(F)F)cc1OC	578 nM	2890 nM
Clc1ccc(N2COOC3(OOC2)C2CC4CC(C2)CC3C4)cc1	5800 nM	> 67800 nM
Cc1ccc(C)c(-n2c(-c3ccc(Br)cc3)csc2=NC(=O)c2ccccc2F)c1	> 100000 nM	> 100000 nM
O=C1C(Cl)=C(Oc2ccccc2)C(=O)c2ccccc21	1930 nM	3750 nM
CCN(Cc1ccc(F)cc1F)c1ccc(CO)c(Cl)c1	15.9 nM	39.5 nM
c1ccc2c(NCCCn3ccnc3)c3oc4ccccc4c3nc2c1	1660 nM	3420 nM
Cc1ccc2c(/C=C/C(=O)c3cc(CN4CCOCC4)c(O)c4nc(C)ccc34)cc(CN3CCOCC3)c(O)c2n1	434 nM	2020 nM
Cc1c(C(=O)CCl)c(=O)n(-c2ccccc2)n1C	675 nM	3080 nM
Nc1nc(-c2cccc([N+](=O)[O-])c2)c(N=Nc2ccccc2[N+](=O)[O-])s1	2700 nM	26200 nM
Nc1nc(N)c2c(n1)NC(c1ccc(F)cc1)CC(c1ccc(Nc3nc(NCCO)nc(Nc4ccc(Cl)cc4)n3)cc1)=N2 (stereo not given)	1480 nM	3150 nM
O=C1c2[nH]cc(CN[C@@H]3CCCN3)c2C(=O)c2c1c(O)c1ccccc1c2O	1180 nM	2650 nM
